We go through one molecule from US12428396B2, “Fused pyridine ring derivative, preparation method therefor, and pharmaceutical use thereof” (priority 2019, dated 2025).

A short description of data set [1]: Thermodynamic stability test of atropisomerism (LC-MS). In kind it is physicochemical. The method, then: Agilent 1200 DAD model LC-MS; column: waters sunfire C18, 4.6×75 mm, 3.5 μm; mobile phase: water (0.1% trifluoroacetic acid):acetonitrile (0.1% trifluoroacetic acid).
The compounds of Examples 1-1a, 1-1b were atropisomers of each other and had different retention times in the LC-MS spectra, and the tautomerism of the atropisomers could be detected by LC-MS.
Compound 1-1a (1.5 mg) was dissolved in acetonitrile (1.0 mL), and the reaction solution was heated at 40° C. for 1.0 h, and the change in purity of compound 1-1a was detected by LC-MS. Compound 1-1a (1.5 mg) was dissolved in dimethyl sulfoxide (1.0 mL), and the reaction solution was heated at 120° C. for 3.0 h, and the change in purity of compound 1-1a was detected by LC-MS.
The same procedure was used to test the change in purity of compound 1-1b at 40° C. and 120° C.
The compounds of Examples 5-1, 5-2 were atropisomers of each other and had different retention times in the LC-MS spectra, and the tautomerism of the atropisomers could be detected by LC-MS.
Compound 5-1 (1.0 mg) was dissolved in DMSO (1.0 mL), and the reaction solution was heated at 37° C. and 120° C. for 3.0 h, respectively, and the change in purity of compound 5-1 was detected by LC-MS.

Another data set addresses T1, HIV-1 capsid protein (Human immunodeficiency virus type 1 group M subtype B, UniProt P12493).
T1 construct: made in house; host or cells: E. coli (pET30 vector)
Description: In vitro polymerization of HIV-1 capsid protein (His-CA/GST-CA, Eu cryptate/XL665 energy transfer). In kind it is biochemical, HIV-1 NL4-3. The text has this:
• 1. MAb Anti GST-Eu cryptate (Cisbio) • 2. MAb Anti 6HIS-XL665 (Cisbio) • 3. His tag HIV-1 capsid protein (hereinafter referred to as His-CA) • 4. GST tag HIV-1 capsid protein (hereinafter referred to as GST-CA) • 5. 384-well unbound surface microplate, white (Corning) • 6. Microplate reader (BMG)
The HIV-1 capsid proteins aggregate spontaneously in high-salt solutions. Capsid protein sequences derived from HIV-1 NL4-3 strains (GeneBank AF324493.2) were separately tagged with 6His tag and GST tag sequences at the C-terminus, cloned into pET30 vectors, and expressed and separately tagged for expression in E. coli system and purified. His-CA and GST-CA were mixed at high-salt concentrations, and the level of polymerization of capsid proteins was detected using GST antibody labeled with Eu3+-Cryptate (energy donor) and His antibody labeled with XL665 (energy acceptor). Since the excitation spectrum of Eu3+-Cryptate overlapped with the excitation spectrum of XL665, when the capsid proteins with these two tags formed a poly complex, the energy donor and the energy acceptor could be drawn to a sufficiently close distance, the energy donor released part of the captured energy under the excitation of an external light source (such as a xenon lamp or a laser), with the emission wavelength being 620 nM, part of the resonance was transferred to the energy acceptor to excite the energy acceptor, with the emission wavelength being 665 nM, and an optical signal was generated, the signal intensity of which was in direct proportion to the degree of polymerization of the tag proteins.
His-CA was diluted to 2 μM in a clean tube with protein diluent (50 mM Tris-HCl, pH 8.0, 50 mM NaCl, 0.4 mM MgCl2, 0.05% Triton X-100, 2% glycerol) while MAb Anti 6HIS-XL665 at a final concentration of 260 nM was added; GST-CA was diluted to 20 nM with protein diluent in another clean tube while MAb Anti GST-Eu cryptate at a final concentration of 3.33 nM was added and incubated on ice for half an hour. Compounds were first formulated into a concentration of 20 mM with DMSO, then diluted to a first concentration of 2 mM with DMSO and serially 5-fold diluted to the 8th concentration. Control wells were set and added with DMSO, and serially-diluted compounds were then 20-fold diluted with protein diluent to 10-fold working concentrations. Preparation of capsid protein polymerization liquid at 2-fold concentration: 50 mM Tris-HCl, pH 8.0, 1 M NaCl, 800 mM KF; to a pre-cooled white round-bottomed 384-well plate were added 4 uL of His-CA-His antibody mixture, 4 uL of GST-CA-GST antibody mixture, 2 uL of the compounds at 10-fold concentration and 10 uL of capsid protein polymerization reaction liquid at 2-fold concentration, the plate was sealed with a light-shielding sealing plate membrane after uniformly mixing, and the reaction plate was placed in a 37° C. incubator for incubation for 2 h. After incubation, the samples were excited with an excitation light at 337 nM, and signal values at 620 nM and 665 nM were collected for detection, wherein Ratio values=(665 nM/620 nM signal)×10000 was calculated according to the signal values. IC50 values for compounds were calculated using Graphpad Prism software based on each concentration of the compounds and the corresponding Ratio values.

As a reminder, the IC50 is the point on the concentration scale where inhibition reaches its midpoint. A higher IC50 goes with lower potency. Turning to `CC(C)(C#Cc1nc([C@H](Cc2cc(F)cc(F)c2)NC(=O)Cn2nc(C(F)(F)F)c3c2C(F)(F)[C@@H]2C[C@H]32)c(-c2ccc(Cl)c3c(NS(C)(=O)=O)nn(CC(F)(F)F)c23)c2c1CCC2)S(C)(=O)=O` (atropisomer, axis not shown; (aR)) [Example 1-1, N—((S)-1-((R)-4-(4-chloro-3-(methanesulfonamide)-1-(2,2,2-trifluoroethyl)-1H-indazol-7-yl)-1-(3-methyl-3-(methylsulfonyl)but-1-yn-1-yl)-6,7-dihydro-5H-cyclopenta[c]pyridin-3-yl)-2-(3,5-difluorophenyl)ethyl)-2-((3bS,4aR)-5,5-difluoro-3-(trifluoromethyl)-3b,4,4a,5-tetrahydro-1H-cyclopropa[3,4]cyclopenta[1,2-c]pyrazol-1-yl)acetamide], the “atropisomer stability (change in purity by LC-MS)” value in data set [1] (heated at 40° C. for 1.0 h in acetonitrile) and in data set [1] (heated at 120° C. for 3.0 h in dimethyl sulfoxide) was “stable single-configuration compounds” each time. For the same molecule, the IC50 against HIV-1 capsid protein came out at 9 nM. This molecule also gave an Imax at HIV-1 capsid protein (37° C., 2 h incubation) of 100%.
